ChEMBL document CHEMBL1165939, “A structure-activity relationship study elucidating the mechanism of sequence-specific collagen recognition by the chaperone HSP47” (Bioorg Med Chem, 2010)

Molecular target: T1, Serpin H1 (Mus musculus, UniProt P19324)
T1 sequence (P19324 whole entry): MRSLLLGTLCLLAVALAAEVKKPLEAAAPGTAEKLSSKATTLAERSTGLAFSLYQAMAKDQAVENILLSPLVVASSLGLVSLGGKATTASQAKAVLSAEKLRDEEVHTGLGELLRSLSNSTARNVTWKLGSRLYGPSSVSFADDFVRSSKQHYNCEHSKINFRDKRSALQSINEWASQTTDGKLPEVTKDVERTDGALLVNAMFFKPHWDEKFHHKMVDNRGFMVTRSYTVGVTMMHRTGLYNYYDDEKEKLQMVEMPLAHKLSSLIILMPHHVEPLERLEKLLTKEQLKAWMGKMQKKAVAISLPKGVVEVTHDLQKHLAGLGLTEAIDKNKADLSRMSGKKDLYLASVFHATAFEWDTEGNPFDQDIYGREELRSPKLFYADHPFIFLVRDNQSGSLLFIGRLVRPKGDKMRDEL
Experiment: Binding affinity to mouse recombinant HSP47 expressed in Escherichia coli JM109 after 10 mins by surface plasmon resonance assay

N=C(N)NCCC[C@H](NC(=O)[C@@H]1CCCN1C(=O)CNC(=O)[C@H](CCC(=O)O)NC(=O)[C@@H]1CCCN1C(=O)CNC(=O)[C@@H]1CCCN1C(=O)[C@@H]1CCCN1C(=O)CNC(=O)[C@@H]1C[C@@H](O)CN1C(=O)[C@@H]1CCCN1)C(=O)NCC(=O)N1CCC[C@H]1C(=O)N[C@@H](CCCNC(=N)N)C(=O)NCC(=O)N1CCC[C@H]1C(=O)N1CCC[C@H]1C(=O)NCC(=O)N1CCC[C@H]1C(=O)N1CCC[C@H]1C(=O)NCC(=O)N1CCC[C@H]1C(=O)N1CCC[C@H]1C(=O)NCC(=O)N1CCC[C@H]1C(=O)N1CCC[C@H]1C(=O)NCC(N)=O
IC50: > 100 µM
